Earlier results on one compound are cited in patent US10874875B2, “Irradiation device” (Photocure ASA, priority 2009, dated 2020).

This series deals with CIN2 or CIN3 or a persistent CIN1. As to conditions: 24 patients; local application in a thermogel formulation; illumination 17 minutes after 3-5 hours, laser 100 J/cm^2; second PDT offered for incomplete response; scored at 6 months after the first treatment.

Take `CCCCCCOC(=O)CCC(=O)CN` [5-ALA hexylester, 5-ALA hexyl ester]: the complete response rate is 63%.
